# Several values for one entry are separate records, joined by “and”; a condition that tells them apart may be missing. Equal entries are not always repeated. Toxic doses and inconclusive results are not listed.
# System: P388 leukemia ip, CD2F1 mice, survival T/C
# Test: NCI In Vivo Anticancer Drug Screen. Data for tumor model P388 Leukemia (intraperitoneal) in CD2F1 (CDF1) mice
# Details: endpoint: median survival time, higher = longer survival
# Outline: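 Mice carrying the transplanted tumor received test compound or vehicle. Survival was recorded in each group, and the value is the treated-group measurement divided by that of the vehicle-treated control group.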
# [1] = dose: 12.5 mg/kg/injection, schedule: Q01DX009 (ip), vehicle: saline with Tween-80
# [2] = dose: 25.0 mg/kg/injection, schedule: Q01DX009 (ip), vehicle: saline with Tween-80
# [3] = dose: 50.0 mg/kg/injection, schedule: Q01DX009 (ip), vehicle: saline with Tween-80
# [4] = dose: 50.0 mg/kg/injection, schedule: Q01DX009 (ip), vehicle: saline
# [5] = dose: 3.13 mg/kg/injection, schedule: Q01DX009 (ip), vehicle: water
# [6] = dose: 6.25 mg/kg/injection, schedule: Q01DX009 (ip), vehicle: water
# [7] = dose: 50.0 mg/kg/injection, schedule: Q01DX005 (ip), vehicle: saline with Tween-80
# [8] = dose: 50.0 mg/kg/injection, schedule: Q01DX005 (ip), vehicle: Klucel (hydroxypropylcellulose) (HPC)
# [9] = dose: 100.0 mg/kg/injection, schedule: Q01DX005 (ip), vehicle: Klucel (hydroxypropylcellulose) (HPC)
# [10] = dose: 400.0 mg/kg/injection, schedule: Q04DX003 (ip), vehicle: saline with Tween-80
# [11] = dose: 200.0 mg/kg/injection, schedule: Q01DX009 (ip), vehicle: saline with Tween-80
structure (smiles),measurement,setting,value
CC(C)CCCCCCCCCCCCC(=O)NCC(=O)O,T/C,"dose: 12.5 mg/kg/injection, schedule: Q01DX009 (ip), vehicle: distilled water + Tween-80",96 % of control
same,T/C,"dose: 25.0 mg/kg/injection, schedule: Q01DX009 (ip), vehicle: distilled water + Tween-80",96 % of control
same,T/C,"dose: 50.0 mg/kg/injection, schedule: Q01DX009 (ip), vehicle: distilled water + Tween-80",86 % of control
same,T/C,"dose: 100.0 mg/kg/injection, schedule: Q01DX009 (ip), vehicle: distilled water + Tween-80",86 % of control
same,T/C,"dose: 200.0 mg/kg/injection, schedule: Q01DX009 (ip), vehicle: distilled water + Tween-80",87 % of control
COC(=O)C1O[C@H]1c1cccc[n+]1[O-] (mixture of isomers),T/C,"dose: 25.0 mg/kg/injection, schedule: Q01DX005 (ip), vehicle: water",102 % of control
same,T/C,"dose: 50.0 mg/kg/injection, schedule: Q01DX005 (ip), vehicle: water",101 % of control
same,T/C,"dose: 100.0 mg/kg/injection, schedule: Q01DX005 (ip), vehicle: water",101 % of control
same,T/C,"dose: 200.0 mg/kg/injection, schedule: Q01DX005 (ip), vehicle: water",103 % of control
O=C(O)c1c[nH]c2cc([N+](=O)[O-])ccc2c1=O,T/C,[1],94 % of control
same,T/C,[2],88 % of control
same,T/C,[3],87 % of control
same,T/C,[4],104 % of control
O=[N+]([O-])c1ccc(C2CC3COc4ccccc4C3=N2)cc1 (stereo not drawn),T/C,"dose: 18.75 mg/kg/injection, schedule: Q01DX001 (ip), vehicle: Klucel (hydroxypropylcellulose) (HPC)",88 % of control
same,T/C,"dose: 37.5 mg/kg/injection, schedule: Q01DX001 (ip), vehicle: Klucel (hydroxypropylcellulose) (HPC)",88 % of control
same,T/C,"dose: 75.0 mg/kg/injection, schedule: Q01DX001 (ip), vehicle: Klucel (hydroxypropylcellulose) (HPC)",94 % of control
CCN(CC)C(=O)C(F)C(F)(F)C(F)(F)C(F)(F)C(F)(F)C(F)(F)C(F)(F)F (stereo not drawn),T/C,"dose: 50.0 mg/kg/injection, schedule: Q01DX009 (ip), vehicle: Klucel (hydroxypropylcellulose) (HPC)",102 % of control
same,T/C,"dose: 100.0 mg/kg/injection, schedule: Q01DX009 (ip), vehicle: Klucel (hydroxypropylcellulose) (HPC)",101 % of control
same,T/C,"dose: 200.0 mg/kg/injection, schedule: Q01DX009 (ip), vehicle: Klucel (hydroxypropylcellulose) (HPC)",99 % of control
O=C(CBr)C(=O)OCc1ccccc1,T/C,"dose: 0.78 mg/kg/injection, schedule: Q01DX009 (ip), vehicle: water",100 % of control
same,T/C,"dose: 1.56 mg/kg/injection, schedule: Q01DX009 (ip), vehicle: water",99 % of control
same,T/C,[5],94 % of control
same,T/C,[6],102 % of control
C=CCc1ccc(OCCN(CC)CC)c(OC)c1,T/C,"dose: 12.5 mg/kg/injection, schedule: Q01DX005 (ip), vehicle: saline with Tween-80",117 % of control
same,T/C,"dose: 25.0 mg/kg/injection, schedule: Q01DX005 (ip), vehicle: saline with Tween-80",113 % of control
same,T/C,[7],98 % of control
O=c1oc2ccccc2cc1-n1nnc2ccccc21,T/C,"dose: 60.0 mg/kg/injection, schedule: Q01DX005 (ip), vehicle: saline with Tween-80",98 % of control
same,T/C,"dose: 120.0 mg/kg/injection, schedule: Q01DX005 (ip), vehicle: saline with Tween-80",90 % of control
same,T/C,"dose: 240.0 mg/kg/injection, schedule: Q01DX005 (ip), vehicle: saline with Tween-80",90 % of control
Cc1ccc(N2CC(=O)N3CCCC(C)N3C(=O)C2)cc1 (stereo not drawn),T/C,[7],99 % of control
same,T/C,"dose: 100.0 mg/kg/injection, schedule: Q01DX005 (ip), vehicle: saline with Tween-80",99 % of control
same,T/C,"dose: 200.0 mg/kg/injection, schedule: Q01DX005 (ip), vehicle: saline with Tween-80",99 % of control
Cc1cccc([B-]23OCC[N+]2(CNC(=O)C2=C(O)C4(O)C(=O)C5=C(O)c6c(O)cccc6C(C)(O)C5CC4C(N(C)C)C2=O)CCO3)c1 (stereo not drawn),T/C,[8],97 % of control
same,T/C,[9],111 % of control
same,T/C,"dose: 200.0 mg/kg/injection, schedule: Q01DX005 (ip), vehicle: Klucel (hydroxypropylcellulose) (HPC)",118 % of control
CC(C)(C)N1CC1C#N (stereo not drawn),T/C,"dose: 3.13 mg/kg/injection, schedule: Q01DX009 (ip), vehicle: saline",111 % of control
same,T/C,"dose: 6.25 mg/kg/injection, schedule: Q01DX009 (ip), vehicle: saline",104 % of control
same,T/C,"dose: 12.5 mg/kg/injection, schedule: Q01DX009 (ip), vehicle: saline",101 % of control
Nc1ccc(N=Nc2ccc(S(=O)(=O)O)cc2)cc1,T/C,"dose: 100.0 mg/kg/injection, schedule: Q04DX003 (ip), vehicle: saline with Tween-80",95 % of control
same,T/C,"dose: 200.0 mg/kg/injection, schedule: Q04DX003 (ip), vehicle: saline with Tween-80",100 % of control
same,T/C,[10],100 % of control
Cc1cccc2nc(-c3ccccn3)n(CCc3ccccn3)c12,T/C,[8],98 % of control
same,T/C,[9],106 % of control
Cc1c2oc3c(C)ccc(C(=O)NC4C(=O)NC(C(C)C)C(=O)N5CCCC5C(=O)N(C)CC(=O)N(C)C(C(C)C)C(=O)OC4C)c3nc-2c(C(=O)NC2C(=O)NC(C(C)C)C(=O)N3CCCC3C(=O)N(C)CC(=O)N(C)C(C(C)C)C(=O)OC2C)c(Cl)c1=O (stereo not drawn),T/C,"dose: 0.05 mg/kg/injection, schedule: Q01DX009 (ip), vehicle: water",98 % of control
same,T/C,"dose: 0.1 mg/kg/injection, schedule: Q01DX009 (ip), vehicle: water",96 % of control
same,T/C,"dose: 0.2 mg/kg/injection, schedule: Q01DX009 (ip), vehicle: water",114 % of control
same,T/C,"dose: 0.4 mg/kg/injection, schedule: Q01DX009 (ip), vehicle: water",106 % of control
same,T/C,"dose: 0.8 mg/kg/injection, schedule: Q01DX009 (ip), vehicle: water",110 % of control
same,T/C,[5],150 % of control
same,T/C,[6],172 % of control
same,T/C,"dose: 6.4 mg/kg/injection, schedule: Q01DX009 (ip), vehicle: water",171 % of control
same,T/C,"dose: 12.5 mg/kg/injection, schedule: Q01DX009 (ip), vehicle: water",172 % of control and 243 % of control
same,T/C,"dose: 25.0 mg/kg/injection, schedule: Q01DX009 (ip), vehicle: water",101 % of control and 256 % of control
S=C1Nc2ccccc2C2CC=NN12 (stereo not drawn),T/C,[1],91 % of control
same,T/C,[2],112 % of control
same,T/C,[3],88 % of control and 96 % of control
same,T/C,[11],86 % of control
COCCCNC(=S)N/N=C/c1cc(Cl)cc(Cl)c1O,T/C,"dose: 6.25 mg/kg/injection, schedule: Q01DX009 (ip), vehicle: saline with Tween-80",92 % of control
same,T/C,[1],87 % of control
same,T/C,[11],93 % of control
[Se]=[Nb]=[Se],T/C,"dose: 60.0 mg/kg/injection, schedule: Q01DX005 (ip), vehicle: acid diluted with saline",89 % of control
same,T/C,"dose: 120.0 mg/kg/injection, schedule: Q01DX005 (ip), vehicle: acid diluted with saline",93 % of control
same,T/C,"dose: 240.0 mg/kg/injection, schedule: Q01DX005 (ip), vehicle: acid diluted with saline",90 % of control
O=C(/C=C/c1ccc(OCc2ccccc2)cc1)c1cccc([N+](=O)[O-])c1,T/C,"dose: 50.0 mg/kg/injection, schedule: Q01DX009 (ip), vehicle: saline + alcohol",100 % of control
same,T/C,"dose: 100.0 mg/kg/injection, schedule: Q01DX009 (ip), vehicle: saline + alcohol",92 % of control
same,T/C,"dose: 200.0 mg/kg/injection, schedule: Q01DX009 (ip), vehicle: saline + alcohol",89 % of control
Sc1ccccc1N=Cc1cccs1,T/C,[4],90 % of control
same,T/C,"dose: 100.0 mg/kg/injection, schedule: Q01DX009 (ip), vehicle: saline",99 % of control
same,T/C,"dose: 200.0 mg/kg/injection, schedule: Q01DX009 (ip), vehicle: saline",96 % of control
CN(C)N=Nc1ccc(S(=O)(=O)Nc2ncccn2)cc1,T/C,"dose: 8.75 mg/kg/injection, schedule: Q01DX009 (ip), vehicle: saline with Tween-80",107 % of control
same,T/C,"dose: 35.0 mg/kg/injection, schedule: Q01DX009 (ip), vehicle: saline with Tween-80",160 % of control
same,T/C,"dose: 50.0 mg/kg/injection, schedule: Q04DX003 (ip), vehicle: saline with Tween-80",96 % of control
same,T/C,[10],111 % of control and 92 % of control
C/C=C(\C)C(=O)O[C@@H]1[C@H]2C(C)=CC(=O)[C@@H](O)[C@]2(C)[C@H]2[C@@]3(O)OC[C@@]24[C@@H]1OC(=O)C[C@H]4[C@@H](C)[C@H]3O,T/C,"dose: 0.25 mg/kg/injection, schedule: Q01DX009 (ip), vehicle: other",111 % of control
same,T/C,"dose: 0.6 mg/kg/injection, schedule: Q01DX009 (ip), vehicle: other",163 % of control
COc1ccc(OC/C(C)=N\NS(=O)(=O)c2cc(Cl)c(Cl)cc2Cl)cc1,T/C,"dose: 100.0 mg/kg/injection, schedule: Q01DX001 (ip), vehicle: gum acacia",96 % of control
same,T/C,"dose: 200.0 mg/kg/injection, schedule: Q01DX001 (ip), vehicle: gum acacia",93 % of control
same,T/C,"dose: 400.0 mg/kg/injection, schedule: Q01DX001 (ip), vehicle: gum acacia",95 % of control
